The source of these data is patent US20100267697A1, “ION CHANNEL MODULATORS” (Wyeth, priority 2006, published 2010).

Usually IC50 stands for the concentration needed to halve the response being measured.

T1 sequence (Q00975 whole entry): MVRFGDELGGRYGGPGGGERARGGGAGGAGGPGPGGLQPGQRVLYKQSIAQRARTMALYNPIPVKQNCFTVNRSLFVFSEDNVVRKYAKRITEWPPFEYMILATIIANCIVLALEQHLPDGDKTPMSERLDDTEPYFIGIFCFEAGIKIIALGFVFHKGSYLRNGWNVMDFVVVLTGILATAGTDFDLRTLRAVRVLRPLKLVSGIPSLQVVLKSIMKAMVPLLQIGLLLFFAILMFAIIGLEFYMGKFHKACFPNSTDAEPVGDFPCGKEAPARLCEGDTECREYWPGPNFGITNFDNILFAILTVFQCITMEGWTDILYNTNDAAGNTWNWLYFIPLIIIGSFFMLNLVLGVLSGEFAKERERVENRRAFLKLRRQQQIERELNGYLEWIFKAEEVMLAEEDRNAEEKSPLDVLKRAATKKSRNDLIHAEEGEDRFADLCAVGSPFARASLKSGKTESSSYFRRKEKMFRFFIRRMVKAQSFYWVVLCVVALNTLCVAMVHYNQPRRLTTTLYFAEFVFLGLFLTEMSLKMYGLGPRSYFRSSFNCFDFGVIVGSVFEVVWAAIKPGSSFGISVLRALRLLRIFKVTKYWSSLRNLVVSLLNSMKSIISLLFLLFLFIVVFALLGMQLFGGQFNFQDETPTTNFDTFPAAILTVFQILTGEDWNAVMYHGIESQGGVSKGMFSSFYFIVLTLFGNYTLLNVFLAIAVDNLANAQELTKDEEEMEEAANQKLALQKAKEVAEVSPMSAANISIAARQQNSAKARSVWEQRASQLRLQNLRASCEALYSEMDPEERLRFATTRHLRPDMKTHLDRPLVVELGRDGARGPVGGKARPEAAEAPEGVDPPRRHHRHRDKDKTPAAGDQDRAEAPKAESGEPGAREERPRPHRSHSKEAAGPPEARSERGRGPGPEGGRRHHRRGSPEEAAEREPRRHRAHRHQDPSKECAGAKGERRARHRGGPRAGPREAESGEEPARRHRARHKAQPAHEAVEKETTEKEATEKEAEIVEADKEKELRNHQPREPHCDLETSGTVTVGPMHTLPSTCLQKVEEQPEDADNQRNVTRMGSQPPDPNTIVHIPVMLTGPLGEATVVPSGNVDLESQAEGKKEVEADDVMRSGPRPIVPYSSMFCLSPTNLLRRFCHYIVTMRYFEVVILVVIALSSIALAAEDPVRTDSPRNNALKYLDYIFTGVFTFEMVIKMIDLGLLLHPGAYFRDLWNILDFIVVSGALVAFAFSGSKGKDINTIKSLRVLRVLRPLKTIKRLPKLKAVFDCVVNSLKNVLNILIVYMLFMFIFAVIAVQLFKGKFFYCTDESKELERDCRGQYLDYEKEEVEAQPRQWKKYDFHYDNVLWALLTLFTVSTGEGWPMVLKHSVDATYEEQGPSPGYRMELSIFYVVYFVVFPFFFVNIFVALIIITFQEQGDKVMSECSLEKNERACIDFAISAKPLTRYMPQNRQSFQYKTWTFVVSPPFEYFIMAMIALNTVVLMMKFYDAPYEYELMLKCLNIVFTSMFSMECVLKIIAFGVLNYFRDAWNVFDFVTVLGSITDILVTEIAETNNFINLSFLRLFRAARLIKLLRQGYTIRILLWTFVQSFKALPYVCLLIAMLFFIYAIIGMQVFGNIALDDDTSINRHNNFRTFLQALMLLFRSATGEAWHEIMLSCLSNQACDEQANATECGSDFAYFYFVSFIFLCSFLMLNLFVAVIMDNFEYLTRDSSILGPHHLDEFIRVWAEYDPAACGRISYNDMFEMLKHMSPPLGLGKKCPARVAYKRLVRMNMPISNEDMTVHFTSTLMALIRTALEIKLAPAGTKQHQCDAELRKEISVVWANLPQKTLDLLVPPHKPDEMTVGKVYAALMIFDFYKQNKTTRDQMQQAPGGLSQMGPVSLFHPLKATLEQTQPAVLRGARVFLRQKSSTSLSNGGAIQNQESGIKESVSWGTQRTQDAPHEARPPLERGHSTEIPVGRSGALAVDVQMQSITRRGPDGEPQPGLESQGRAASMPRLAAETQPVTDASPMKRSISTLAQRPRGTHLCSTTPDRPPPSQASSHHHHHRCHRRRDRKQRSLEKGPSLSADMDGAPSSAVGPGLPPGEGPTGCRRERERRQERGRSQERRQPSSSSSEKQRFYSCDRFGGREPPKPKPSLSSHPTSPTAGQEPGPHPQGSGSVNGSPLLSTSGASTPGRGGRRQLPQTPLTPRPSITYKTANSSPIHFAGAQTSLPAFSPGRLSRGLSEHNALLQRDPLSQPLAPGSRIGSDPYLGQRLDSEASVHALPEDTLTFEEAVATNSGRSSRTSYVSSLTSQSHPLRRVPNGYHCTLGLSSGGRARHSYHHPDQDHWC
T1 sequence (P54284 whole entry partner): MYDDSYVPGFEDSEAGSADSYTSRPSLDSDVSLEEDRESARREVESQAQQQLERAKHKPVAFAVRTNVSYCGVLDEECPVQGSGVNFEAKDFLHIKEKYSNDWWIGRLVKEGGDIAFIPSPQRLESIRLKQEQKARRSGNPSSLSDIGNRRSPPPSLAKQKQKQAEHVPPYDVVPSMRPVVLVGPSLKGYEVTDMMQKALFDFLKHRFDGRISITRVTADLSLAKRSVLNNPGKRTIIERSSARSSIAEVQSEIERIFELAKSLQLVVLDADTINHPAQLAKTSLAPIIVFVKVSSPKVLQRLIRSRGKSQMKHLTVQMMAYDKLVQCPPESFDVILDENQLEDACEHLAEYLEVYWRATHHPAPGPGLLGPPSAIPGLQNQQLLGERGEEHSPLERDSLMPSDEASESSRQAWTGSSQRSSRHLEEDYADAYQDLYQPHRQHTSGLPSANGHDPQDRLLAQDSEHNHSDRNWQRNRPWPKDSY
T1 sequence (P54289 25-946 partner limits assumed): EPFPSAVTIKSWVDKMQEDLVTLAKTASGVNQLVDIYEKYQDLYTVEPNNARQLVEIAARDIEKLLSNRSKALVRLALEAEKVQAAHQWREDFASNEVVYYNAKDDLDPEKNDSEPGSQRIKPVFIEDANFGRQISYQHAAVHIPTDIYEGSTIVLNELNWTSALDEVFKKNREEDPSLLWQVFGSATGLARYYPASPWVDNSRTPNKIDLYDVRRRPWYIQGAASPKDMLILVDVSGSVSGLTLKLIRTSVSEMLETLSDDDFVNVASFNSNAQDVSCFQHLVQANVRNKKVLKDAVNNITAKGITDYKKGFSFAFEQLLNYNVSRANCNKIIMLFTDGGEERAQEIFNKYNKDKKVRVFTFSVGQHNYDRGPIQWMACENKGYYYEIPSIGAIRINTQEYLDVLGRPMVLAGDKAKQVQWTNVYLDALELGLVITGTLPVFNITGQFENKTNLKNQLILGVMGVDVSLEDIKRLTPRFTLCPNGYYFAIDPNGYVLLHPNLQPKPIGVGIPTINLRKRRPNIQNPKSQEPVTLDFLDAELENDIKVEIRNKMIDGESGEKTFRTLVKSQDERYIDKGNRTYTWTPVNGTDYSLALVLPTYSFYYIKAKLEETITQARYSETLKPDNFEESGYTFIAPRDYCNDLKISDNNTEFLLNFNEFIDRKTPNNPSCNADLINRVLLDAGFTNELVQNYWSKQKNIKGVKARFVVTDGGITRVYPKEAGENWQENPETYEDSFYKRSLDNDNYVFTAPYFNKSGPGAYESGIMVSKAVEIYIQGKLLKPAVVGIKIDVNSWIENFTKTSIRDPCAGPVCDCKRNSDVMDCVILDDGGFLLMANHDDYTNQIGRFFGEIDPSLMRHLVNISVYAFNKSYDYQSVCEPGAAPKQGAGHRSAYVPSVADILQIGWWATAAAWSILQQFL
T1 sequence (P54289 947-1103 partner limits assumed): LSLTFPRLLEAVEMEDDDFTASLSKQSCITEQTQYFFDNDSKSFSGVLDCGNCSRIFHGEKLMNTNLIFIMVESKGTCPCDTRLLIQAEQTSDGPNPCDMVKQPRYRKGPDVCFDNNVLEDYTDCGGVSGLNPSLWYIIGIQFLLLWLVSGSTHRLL

The experiment concerns the target T1, human Cav2.2 (composed of the subunits α1, β3 and α2δ) (Homo sapiens, UniProt Q00975).
T1 construct: expressed in transfected cells
Put plainly: FLIPR assay (TSA201 cells stably transfected with human Cav2.2 and human Kir2.3, FLUO-4 Ca2+ signal, KCl depolarization). In kind it is cell-based. Conditions: 70 mM KCl depolarization, average value. The method, boiled down: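 TSA201 cells co-expressing Cav2.2 (α1, β3, α2δ) and Kir2.3 were loaded with FLUO-4 for 1 h at room temperature. Compound in HBSS with 1% DMSO was preincubated 15 min, then cells were depolarized with 70 mM final KCl (with CaCl2 and HEPES) and the Ca2+ fluorescence was read on FLIPR.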
Compound `CC(C)N1CCN(c2nc(CN(C(=O)C(C)(C)C)c3ccc(F)cc3)cs2)CC1` [Compound 148, N-(4-fluroophenyl)-N-{[2-(4-isopropylpiperazin-1-yl)-1,3-thiazol-4-yl]methyl}-2,2-dimethylpropanamide] had a 50% inhibitory concentration (IC50) of 15.4 µM. This counts as double-digit micromolar.
As for `CC(=O)N(Cc1ccc(N2CCCN(C)CC2)nc1)c1ccc(F)cc1` [Compound 226, N-(4-fluorophenyl)-N-{[6-(4-methyl-1,4-diazepan-1-yl)pyridin-3-yl]methyl}acetamide], the IC50 worked out at 26.2 µM.
In the case of `CC(C)(C)C(=O)N(Cc1csc(N2CCCCCC2)n1)c1ccc(F)cc1` [Compound 183, N-[(2-azepan-1-yl-1,3-thiazol-4-yl)methyl]-N-(4-fluorophenyl)-2,2-dimethylpropanamide] it was 2.3 µM.
As to `CC(C)(C)C(=O)N(Cc1csc(Br)n1)c1ccc(F)cc1` [Compound 144, N-[(2-bromo-1,3-thiazol-4-yl)methyl]-N-(4-fluorophenyl)-2,2-dimethylpropanamide], the half-maximal inhibitory concentration (IC50) worked out at 3.2 µM.
In the case of `CC(=O)N(Cc1csc(N2CCCC(CO)C2)n1)c1ccc(F)cc1` (stereo not drawn) [Compound 225, N-(4-fluorophenyl)-N-({2-[3-(hydroxymethyl)piperidin-1-yl]-1,3-thiazol-4-yl}methyl)acetamide] it was 16.4 µM; in that of `CC(C)(C)C(=O)N(Cc1csc(-c2ccccc2O)n1)c1ccc(F)cc1` [Compound 246, N-(4-fluorophenyl)-N-{[2-(2-hydroxyphenyl)-1,3-thiazol-4-yl]methyl}-2,2-dimethylpropanamide], 7.2 µM.
As for `CN1CCN(c2ccc(CN(C(=O)NC(C)(C)C)c3ccc(F)cc3)cn2)CC1` [Compound 126, N′-(tert-butyl)-N-(4-fluorophenyl)-N-{[6-(4-methylpiperazin-1-yl)pyridin-3-yl]methyl}urea], the figure is 30 µM; as for `O=C(C1CCCCC1)N(Cc1csc(N2CCOCC2)n1)c1ccc(F)cc1` [Compound 137, N-(4-fluorophenyl)-N-[(2-morpholin-4-yl-1,3-thiazol-4-yl)methyl]cyclohexanecarboxamide], 11.2 µM; as for `CC(=O)N(Cc1ccc(N2CCCC(CO)C2)nc1)c1ccc(F)cc1` (stereo not drawn) [Compound 234, N-(4-fluorophenyl)-N-({6-[3-(hydroxymethyl)piperidin-1-yl]pyridin-3-yl}methyl)acetamide], 13.9 µM.
As for `CC(C)(C)C(=O)N(Cc1csc(N2CCCC(CO)C2)n1)c1ccc(F)cc1` (stereo not drawn) [Compound 187, N-(4-fluorophenyl)-N-({2-[3-(hydroxymethyl)piperidin-1-yl]-1,3-thiazol-4-yl}methyl)-2,2-dimethylpropanamide], the figure is 3 µM.
As to `CC(C)(C)C(=O)N(Cc1csc(N2CCNCC2)n1)c1ccc(F)cc1` [Compound 152, N-(4-fluorophenyl)-2,2-dimethyl-N-[(2-piperazin-1-yl-1,3-thiazol-4-yl)methyl]propanamide], the half-inhibitory concentration (IC50) was 8.3 µM.
The compound `CC(=O)N(Cc1ccc(N2CCC(CO)CC2)nc1)C1CCCC1` [Compound 235, N-cyclopentyl-N-({6-[4-(hydroxymethyl)piperidin-1-yl]pyridin-3-yl}methyl)acetamide] showed an IC50 of 36.4 µM.
Compound `CN(C)CCN1CCN(c2nc(CN(C(=O)C(C)(C)C)c3ccc(F)cc3)cs2)CC1` [Compound 178, N-[(2-{4-[2-(dimethylamino)ethyl]piperazin-1-yl}-1,3-thiazol-4-yl)methyl]-N-(4-fluorophenyl)-2,2-dimethylpropanamide] registered a concentration for half-maximal inhibition (IC50) of 19.7 µM. Against the preceding compound, the IC50 is about 1.8-fold lower.
As for `O=C(C1CCCCC1)N(Cc1ccc(N2CCN(c3ccccn3)CC2)nc1)c1ccc(F)cc1` [Compound 128, N-(4-fluorophenyl)-N-{[6-(4-pyridin-2-ylpiperazin-1-yl)pyridin-3-yl]methyl}cyclohexanecarboxamide], the figure is 9.1 µM; as for `CN1CCN(c2ccc(CN(C(=O)[C@H]3CCNC3)c3ccc(F)cc3)cn2)CC1` [Compound 258, (3S)-N-(4-fluorophenyl)-N-{[6-(4-methylpiperazin-1-yl)pyridin-3-yl]methyl}pyrrolidine-3-carboxamide], 57.7 µM; as for `CN1CCN(c2ccc(CN(C(=O)[C@@H]3CCN(C(=O)OC(C)(C)C)C3)c3ccc(F)cc3)cn2)CC1` [Compound 257, tert-butyl (3R)-3-[(4-fluorophenyl){[6-(4-methylpiperazin-1-yl)pyridin-3-yl]methyl}carbamoyl]pyrrolidine-1-carboxylate], 22.9 µM.
With `CC(C)(C)C(=O)N(CCc1csc(N2CCOCC2)n1)c1ccc(F)cc1` [Compound 212, N-(4-flurophenyl)-2,2-dimethyl-N-[2-(2-morpholin-4-yl-1,3-thiazol-4-yl)ethyl]propanamide], the IC50 is 5.9 µM. Compared with the last compound, the IC50 is about 3.9-fold lower.
In the case of `CN1CCN(c2ccc(CN(C(=O)[C@@H]3CCN(C(=O)C(C)(C)C)C3)c3ccc(F)cc3)cn2)CC1` [Compound 261, (3R)-1-(2,2-dimethylpropanoyl)-N-(4-fluorophenyl)-N-{[6-(4-methylpiperazin-1-yl)pyridin-3-yl]methyl}pyrrolidine-3-carboxamide] it was 55.6 µM; in that of `CC(C)(C)C(=O)N(Cc1csc(N2CCCC(O)C2)n1)c1ccc(F)cc1` (stereo not drawn) [Compound 186, N-(4-fluroophenyl)-N-{[2-(3-hydroxypiperidin-1-yl)-1,3-thiazol-4-yl]methyl}-2,2-dimethylpropanamide], 5.6 µM; in that of `CC(C)(C)C(=O)N(Cc1csc(NC2CCCCC2)n1)c1ccc(F)cc1` [Compound 157, N-{[2-(cyclohexylamino)-1,3-thiazol-4-yl]methyl}-N-(4-fluorophenyl)-2,2-dimethylpropanamide], 8.8 µM.
In the case of `O=C(Cc1ccccc1)N(Cc1csc(N2CCOCC2)n1)C1CCCCC1` [Compound 201, N-cyclohexyl-N-[(2-morpholin-4-yl-1,3-thiazol-4-yl)methyl]-2-phenylacetamide] it was 9.7 µM; in that of `CCN(c1nc(CN(C(=O)[C@@H]2CCC(=O)N2)c2ccc(F)cc2)cs1)C1CC1` [Compound 124, N-({2-[cyclopropyl(ethyl)amino]-1,3-thiazol-4-yl}methyl)-N-(4-fluorophenyl)-5-oxo-L-prolinamide], 19.7 µM; in that of `CC(C)(C)C(=O)N(Cc1ccc(N2CCCC2)nc1)c1ccc(F)cc1` [Compound 132, N-(4-fluorophenyl)-2,2-dimethyl-N-[(6-pyrrolidin-1-ylpyridin-3-yl)methyl]propanamide], 8.2 µM.
In turn, `CC(C)(C)C(=O)N(Cc1csc(N2CCOCC2)n1)C1CCCCC1` [Compound 204, N-cyclohexyl-2,2-dimethyl-N-[(2-morpholin-4-yl-1,3-thiazol-4-yl)methyl]propanamide] returned a half-maximal inhibitory concentration (IC50) of 11.4 µM. This IC50 and that of the compound before are within 1.5-fold of each other.
As for `CCN(c1ccc(CN(C(=O)C(C)(C)C)c2ccc(F)cc2)cn1)C1CC1` [Compound 139, N-({6-[cyclopropyl(ethyl)amino]pyridin-3-yl}methyl)-N-(4-fluorophenyl)-2,2-dimethylpropanamide], the figure is 1.3 µM; as for `CCN(c1nc(CN(C(=O)C(C)(C)C)c2ccccc2)cs1)C1CC1` [Compound 168, N-({2-[cyclopropyl(ethyl)amino]-1,3-thiazol-4-yl}methyl)-2,2-dimethyl-N-phenylpropanamide], 5.1 µM.
As for `Cc1ccc(OCCN(C)c2ccc(CN(C(=O)C(C)(C)C)c3ccc(F)cc3)cn2)nc1` [Compound 131, N-(4-fluorophenyl)-2,2-dimethyl-N-{[6-(methyl{2-[(5-methylpyridin-2-yl)oxy]ethyl}amino)pyridin-3-yl]methyl}propanamide], the figure is 8.1 µM; as for `CN(c1ccc(F)cc1)c1nc(CN(C(=O)C(C)(C)C)c2ccc(F)cc2)cs1` [Compound 141, N-(4-fluorophenyl)-N-({2-[(4-fluorophenyl)(methyl)amino]-1,3-thiazol-4-yl}methyl)-2,2-dimethylpropanamide], 7.6 µM.
As to `CC(C)(C)C(=O)N(Cc1csc(-c2ccc(C(F)(F)F)cc2)n1)c1ccc(F)cc1` [Compound 241, N-(4-fluorophenyl)-2,2-dimethyl-N-({2-[4-(trifluoromethyl)phenyl]-1,3-thiazol-4-yl}methyl)propanamide], the IC50 is 6.7 µM.
`CN(C)c1nc(CN(C(=O)C(C)(C)C)c2ccc(F)cc2)cs1` [Compound 164, N-{[2-(dimethylamino)-1,3-thiazol-4-yl]methyl}-N-(4-fluorophenyl)-2,2-dimethylpropanamide] had a half-maximal inhibitory concentration (IC50) of 4.75 µM.
In the case of `CC(C)(C)C(=O)N(Cc1cnc(N2CCCCC2)s1)c1ccc(F)cc1` [Compound 194, N-(4-fluorophenyl)-2,2-dimethyl-N-[(2-piperidin-1-yl-1,3-thiazol-5-yl)methyl]propanamide] it was 3.2 µM; in that of `CCN(c1nc(CN(C(=O)C(C)(C)C)c2cccc(F)c2)cs1)C1CC1` [Compound 170, N-({2-[cyclopropyl(ethyl)amino]-1,3-thiazol-4-yl}methyl)-N-(3-fluorophenyl)-2,2-dimethylpropanamide], 3.9 µM.
In the case of `CC(CC(=O)N(Cc1ccc(N(C)CCc2ccccn2)nc1)c1ccc(F)cc1)C(F)(F)F` (stereo not drawn) [Compound 127] it was 2.6 µM; in that of `CCN(c1nc(CN(C(=O)C(C)(C)C)c2ccccc2F)cs1)C1CC1` [Compound 169, N-({2-[cyclopropyl(ethyl)amino]-1,3-thiazol-4-yl}methyl)-N-(2-fluorophenyl)-2,2-dimethylpropanamide], 5.7 µM; in that of `CCN(CC)c1ccc(CN(C(C)=O)c2ccc(F)cc2)cn1` [Compound 228, N-{[6-(diethylamino)pyridin-3-yl]methyl}-N-(4-fluorophenyl)acetamide], 12.6 µM.
In the case of `CN1CCN(c2ccc(CN(C(=O)[C@H]3CCN(C(=O)C(C)(C)C)C3)c3ccc(F)cc3)cn2)CC1` [Compound 260, (3S)-1-(2,2-dimethylpropanoyl)-N-(4-fluorophenyl)-N-{[6-(4-methylpiperazin-1-yl)pyridin-3-yl]methyl}pyrrolidine-3-carboxamide] it was 47.3 µM.
